Residues, ends and D or L forms follow the SMILES beside them. No end group written: not given here.
How the values were obtained:
SARS-CoV-2 = settings: 1 h
[1] = test system: SARS-CoV-2 (nCoV/USA_WA1/2020)

CC[C@H](C)[C@H](NC(=O)[C@H](CCCNC(=N)N)NC(=O)[C@H](CCC(=O)O)NC(=O)CN)C(=O)N[C@@H](CCCCN)C(=O)N[C@@H](CC(N)=O)C(=O)N[C@@H](C)C(=O)N[C@@H](CCCCN)C(=O)N[C@@H](CCCCN)C(=O)N[C@@H](CCCCN)C(=O)N[C@H](C(=O)N[C@@H](Cc1c[nH]c2ccccc12)C(=O)N[C@@H](CCC(=O)O)C(=O)N[C@@H](CCCCN)C(=O)N[C@H](C(=O)N[C@@H](CCCCN)C(=O)N[C@@H](CO)C(=O)N[C@@H](Cc1ccccc1)C(=O)NCC(=O)N[C@@H](CCCNC(=N)N)C(=O)N[C@@H](CCCNC(=N)N)C(=O)N[C@H](C(=O)N[C@@H](CCCCN)C(=O)N[C@@H](CC(=O)O)C(=O)N[C@@H](Cc1ccccc1)C(=O)N[C@@H](Cc1ccccc1)C(=O)N[C@@H](CCCNC(=N)N)C(=O)N[C@@H](CCCCN)C(=O)N1CCC[C@H]1C(=O)N[C@@H](CO)C(=O)N1CCC[C@H]1C(=O)N[C@@H](CCC(=O)O)C(=O)N[C@H](C(=O)N[C@@H](CCC(=O)O)C(=O)N1CCC[C@H]1C(=O)O)C(C)C)[C@@H](C)CC)[C@@H](C)CC)C(C)C [Bat Cathelicidin 4c] (H-GERIKNAKKKVWEKIKSFGRRIKDFFRKPSPEVEP-OH; N-terminus and C-terminus assumed)
SARS-CoV-2 inhibition at 50 µM (SARS-CoV-2): > 50%

CC[C@H](C)[C@H](NC(=O)[C@H](CCCNC(=N)N)NC(=O)[C@@H]1CCCN1C(=O)[C@@H](NC(=O)[C@@H]1CCCN1C(=O)[C@H](Cc1ccccc1)NC(=O)[C@H](CO)NC(=O)[C@@H]1CCCN1C(=O)[C@@H]1CCCN1C(=O)[C@H](Cc1ccccc1)NC(=O)[C@H](Cc1c[nH]c2ccccc12)NC(=O)[C@@H]1CCCN1C(=O)[C@@H]1CCCN1C(=O)[C@@H]1CCCN1C(=O)[C@H](Cc1c[nH]c2ccccc12)NC(=O)[C@H](CCC(N)=O)NC(=O)[C@H](Cc1c[nH]c2ccccc12)NC(=O)[C@H](CCCNC(=N)N)NC(=O)[C@H](CC(C)C)NC(=O)[C@@H]1CCCN1C(=O)[C@@H](NC(=O)[C@@H]1CCCN1C(=O)[C@H](Cc1c[nH]c2ccccc12)NC(=O)[C@H](Cc1ccccc1)NC(=O)[C@@H]1CCCN1C(=O)[C@@H](NC(=O)[C@H](CCCNC(=N)N)NC(=O)[C@@H](N)CCCNC(=N)N)[C@@H](C)CC)[C@@H](C)CC)[C@@H](C)CC)C(=O)N[C@@H](CO)C(=O)N[C@@H](CCCNC(=N)N)C(=O)N[C@@H](CCCCN)C(=O)N[C@@H](CCCNC(=N)N)C(=O)O [Beluga 1] (H-RRIPFWPIPLRWQWPPPWFPPSFPIPRISRKR-OH; N-terminus and C-terminus assumed)
SARS-CoV-2 inhibition at 50 µM (SARS-CoV-2): > 50%

CC[C@H](C)[C@H](NC(=O)[C@H](CCCCN)NC(=O)[C@H](CCC(=O)O)NC(=O)[C@H](CCCCN)NC(=O)[C@H](CO)NC(=O)[C@H](CCCCN)NC(=O)[C@H](CCCNC(=N)N)NC(=O)[C@H](Cc1ccccc1)NC(=O)[C@H](Cc1ccccc1)NC(=O)[C@H](CC(=O)O)NC(=O)CNC(=O)[C@H](CC(C)C)NC(=O)[C@@H](N)CC(C)C)C(=O)NCC(=O)N[C@@H](CCCCN)C(=O)N[C@@H](CCC(=O)O)C(=O)N[C@@H](Cc1ccccc1)C(=O)N[C@@H](CCCCN)C(=O)N[C@@H](CCCNC(=N)N)C(=O)N[C@H](C(=O)N[C@H](C(=O)N[C@@H](CCC(N)=O)C(=O)N[C@@H](CCCNC(=N)N)C(=O)N[C@H](C(=O)N[C@@H](CCCCN)C(=O)N[C@@H](CC(=O)O)C(=O)N[C@@H](Cc1ccccc1)C(=O)N[C@@H](CC(C)C)C(=O)N[C@@H](CCCNC(=N)N)C(=O)N[C@@H](CC(N)=O)C(=O)N[C@@H](CC(C)C)C(=O)N[C@H](C(=O)N1CCC[C@H]1C(=O)N[C@@H](CCCNC(=N)N)C(=O)N[C@H](C(=O)N[C@@H](CCC(=O)O)C(=O)N[C@@H](CO)C(=O)O)[C@@H](C)O)C(C)C)[C@@H](C)CC)C(C)C)[C@@H](C)CC [LL-37, reference compound]
hemolytic activity (in words) (human red blood cells): considerable hemolytic activity
HEK293T TD50 (HEK293T cells): 26.61 µM
SARS-CoV-2 inhibition at 50 µM (SARS-CoV-2): > 50%
Vero TD50 48 h (Vero hACE2 cells): 39.44 µM

CC[C@H](C)[C@H](NC(=O)CNC(=O)[C@@H](NC(=O)[C@H](CCCCN)NC(=O)[C@@H](NC(=O)[C@H](CCCCN)NC(=O)[C@H](CCCCN)NC(=O)[C@H](Cc1ccccc1)NC(=O)[C@H](Cc1ccccc1)NC(=O)[C@H](CC(N)=O)NC(=O)[C@H](CCCCN)NC(=O)[C@H](Cc1ccccc1)NC(=O)[C@H](CCCNC(=N)N)NC(=O)[C@@H](N)CCCCN)[C@@H](C)CC)[C@@H](C)O)C(=O)N[C@@H](CCCCN)C(=O)N[C@@H](CCCCN)C(=O)N[C@H](C(=O)N[C@H](C(=O)N[C@@H](CCCCN)C(=O)N[C@@H](CCCCN)C(=O)N[C@H](C(=O)N[C@@H](CCCCN)C(=O)N[C@@H](CCC(=O)O)C(=O)O)[C@@H](C)O)[C@@H](C)CC)C(C)C [NS] (H-KRFKNFFKKIKTGIKKVIKKTKE-OH; N-terminus and C-terminus assumed)
SARS-CoV-2 inhibition at 50 µM (SARS-CoV-2): > 50%

CC[C@H](C)[C@H](NC(=O)[C@H](CO)NC(=O)[C@H](CCCCN)NC(=O)[C@H](CCCNC(=N)N)NC(=O)[C@H](CC(C)C)NC(=O)[C@H](CCCCN)NC(=O)[C@H](CCCCN)NC(=O)[C@@H](NC(=O)[C@H](CCCNC(=N)N)NC(=O)[C@H](CCCCN)NC(=O)[C@@H](N)CCCNC(=N)N)[C@@H](C)CC)C(=O)N[C@@H](CCCCN)C(=O)N[C@@H](CCCCN)C(=O)N[C@@H](CCCNC(=N)N)C(=O)N[C@@H](CC(C)C)C(=O)N[C@@H](CCCCN)C(=O)N[C@@H](CCCCN)C(=O)N[C@@H](CC(C)C)C(=O)N1CCC[C@H]1C(=O)N[C@@H](Cc1ccccc1)C(=O)N[C@@H](CCC(=O)O)C(=O)N[C@H](C(=O)N1CCC[C@H]1C(=O)N[C@@H](CC(C)C)C(=O)N[C@H](C(=O)N[C@@H](Cc1ccccc1)C(=O)N[C@@H](CO)C(=O)N[C@H](C(=O)N1CCC[C@H]1C(=O)N[C@@H](Cc1ccccc1)C(=O)O)[C@@H](C)CC)C(C)C)C(C)C [PC1a] (H-RKRIKKLRKSIKKRLKKLPFEVPLVFSIPF-OH; N-terminus and C-terminus assumed)
SARS-CoV-2 inhibition at 50 µM (SARS-CoV-2): > 50%

CC[C@H](C)[C@H](NC(=O)[C@H](CCCCN)NC(=O)[C@H](CCCCN)NC(=O)[C@H](Cc1ccccc1)NC(=O)[C@H](Cc1ccccc1)NC(=O)[C@H](CCCCN)NC(=O)[C@H](CCCCN)NC(=O)[C@H](Cc1ccccc1)NC(=O)[C@H](CCCNC(=N)N)NC(=O)[C@@H](N)CCCCN)C(=O)N[C@@H](CCCCN)C(=O)N[C@@H](CCCCN)C(=O)N[C@@H](CO)C(=O)N[C@H](C(=O)N[C@@H](CCCCN)C(=O)N[C@@H](CCCCN)C(=O)N[C@@H](CCCNC(=N)N)C(=O)N[C@H](C(=O)N[C@@H](CCCCN)C(=O)N[C@@H](CCCCN)C(=O)N[C@@H](CC(C)C)C(=O)N[C@@H](Cc1ccccc1)C(=O)N[C@@H](CCCCN)C(=O)N[C@@H](CCCCN)C(=O)N1CCC[C@H]1C(=O)N[C@@H](CCCNC(=N)N)C(=O)N[C@H](C(=O)N[C@H](C(=O)N1CCC[C@H]1C(=O)N[C@H](C(=O)N[C@@H](CO)C(=O)N[C@H](C(=O)N1CCC[C@H]1C(=O)N[C@@H](Cc1ccccc1)C(=O)O)[C@@H](C)CC)[C@@H](C)CC)[C@@H](C)CC)C(C)C)C(C)C)C(C)C [TS] (H-KRFKKFFKKIKKSVKKRVKKLFKKPRVIPISIPF-OH; N-terminus and C-terminus assumed)
SARS-CoV-2 inhibition at 50 µM (SARS-CoV-2): > 50%

CC[C@H](C)[C@H](NC(=O)[C@H](CO)NC(=O)CNC(=O)[C@@H](NC(=O)[C@@H](NC(=O)[C@@H]1CCCN1C(=O)[C@@H]1CCCN1C(=O)[C@@H](NC(=O)[C@H](Cc1c[nH]c2ccccc12)NC(=O)[C@H](CCCCN)NC(=O)[C@H](CC(C)C)NC(=O)[C@@H](NC(=O)[C@H](CCCCN)NC(=O)CNC(=O)[C@@H](NC(=O)[C@H](CCCCN)NC(=O)[C@H](CCCCN)NC(=O)[C@H](CC(C)C)NC(=O)[C@H](CCCNC(=N)N)NC(=O)[C@H](CCCCN)NC(=O)[C@H](CCCNC(=N)N)NC(=O)[C@@H](NC(=O)[C@H](CCCCN)NC(=O)[C@H](CCCCN)NC(=O)[C@H](CCCNC(=N)N)NC(=O)[C@H](CC(C)C)NC(=O)[C@H](CCCNC(=N)N)NC(=O)[C@H](CCCNC(=N)N)NC(=O)[C@H](Cc1ccccc1)NC(=O)[C@H](CCCNC(=N)N)NC(=O)CNC(=O)[C@@H](N)C(C)C)[C@@H](C)O)[C@@H](C)CC)C(C)C)[C@@H](C)CC)[C@@H](C)CC)C(C)C)C(=O)O [p5C] (H-VGRFRRLRKKTRKRLKKIGKVLKWIPPIVGSI-OH)
anti-SARS-CoV-2 activity relative to PMAP-36R (in words) [1]: little inhibitory activity

CC[C@H](C)[C@H](NC(=O)[C@@H]1CCCN1C(=O)[C@@H]1CCCN1C(=O)[C@@H](NC(=O)[C@H](Cc1c[nH]c2ccccc12)NC(=O)[C@H](CCCCN)NC(=O)[C@H](CC(C)C)NC(=O)[C@@H](NC(=O)[C@H](CCCCN)NC(=O)CNC(=O)[C@@H](NC(=O)[C@H](CCCCN)NC(=O)[C@H](CCCCN)NC(=O)[C@H](CC(C)C)NC(=O)[C@H](CCCNC(=N)N)NC(=O)[C@H](CCCCN)NC(=O)[C@H](CCCNC(=N)N)NC(=O)[C@@H](NC(=O)[C@H](CCCCN)NC(=O)[C@H](CCCCN)NC(=O)[C@H](CCCNC(=N)N)NC(=O)[C@H](CC(C)C)NC(=O)[C@H](CCCNC(=N)N)NC(=O)[C@H](CCCNC(=N)N)NC(=O)[C@H](Cc1ccccc1)NC(=O)[C@H](CCCNC(=N)N)NC(=O)CNC(=O)[C@@H](N)C(C)C)[C@@H](C)O)[C@@H](C)CC)C(C)C)[C@@H](C)CC)C(=O)O [p9C] (H-VGRFRRLRKKTRKRLKKIGKVLKWIPPI-OH)
anti-SARS-CoV-2 activity relative to PMAP-36R (in words) [1]: none

CC[C@H](C)[C@H](NC(=O)[C@H](CCCCN)NC(=O)[C@H](CCCCN)NC(=O)[C@@H](N)CC(C)C)C(=O)NCC(=O)N[C@@H](CCCCN)C(=O)N[C@H](C(=O)N[C@@H](CC(C)C)C(=O)N[C@@H](CCCCN)C(=O)N[C@@H](Cc1c[nH]c2ccccc12)C(=O)N[C@H](C(=O)N1CCC[C@H]1C(=O)N1CCC[C@H]1C(=O)N[C@H](C(=O)N[C@H](C(=O)NCC(=O)N[C@@H](CO)C(=O)N[C@H](C(=O)N1CCC[C@H]1C(=O)N[C@@H](CC(C)C)C(=O)NCC(=O)N[C@@H](CS)C(=O)NCC(=O)O)[C@@H](C)CC)C(C)C)[C@@H](C)CC)[C@@H](C)CC)C(C)C [p14N] (H-LKKIGKVLKWIPPIVGSIPLGCG-OH)
anti-SARS-CoV-2 activity relative to PMAP-36R (in words) [1]: no inhibition

IKNVELNIENLGERIKNAKKKVWEKIKSFGRRIKDFFRKPSPEVEP [Bat Cathelicidin 4]
SARS-CoV-2 inhibition at 50 µM (SARS-CoV-2): > 50%

RTKRFRKLGNLLQKGGQKIGQKIERIGQKIKDFFSNLVPRQEGA [Pangolin 1]
SARS-CoV-2 inhibition at 50 µM (SARS-CoV-2): > 50%

From article PMC10480232 (Scientific Reports, 2023)
